Measured values from patent publication US20240116985A1, “STAPLED PEPTIDES AND METHODS THEREOF” (priority 2020, published 2024).
≈ marks a conversion by molar mass, not a printed value. Where two headings read alike, the source gives them in different places.

Legend:
[1] = molecular target: T1, full-length beta-Catenin (Uniprot ID P35222) (Homo sapiens, UniProt P35222); assay: Fluorescence polarization IC50 (beta-catenin / 5FAM-TCF4 10-53 competition); format: binding
T1 construct: 10 nM full-length beta-Catenin (Uniprot ID P35222)
T1 sequence (P35222 1-781): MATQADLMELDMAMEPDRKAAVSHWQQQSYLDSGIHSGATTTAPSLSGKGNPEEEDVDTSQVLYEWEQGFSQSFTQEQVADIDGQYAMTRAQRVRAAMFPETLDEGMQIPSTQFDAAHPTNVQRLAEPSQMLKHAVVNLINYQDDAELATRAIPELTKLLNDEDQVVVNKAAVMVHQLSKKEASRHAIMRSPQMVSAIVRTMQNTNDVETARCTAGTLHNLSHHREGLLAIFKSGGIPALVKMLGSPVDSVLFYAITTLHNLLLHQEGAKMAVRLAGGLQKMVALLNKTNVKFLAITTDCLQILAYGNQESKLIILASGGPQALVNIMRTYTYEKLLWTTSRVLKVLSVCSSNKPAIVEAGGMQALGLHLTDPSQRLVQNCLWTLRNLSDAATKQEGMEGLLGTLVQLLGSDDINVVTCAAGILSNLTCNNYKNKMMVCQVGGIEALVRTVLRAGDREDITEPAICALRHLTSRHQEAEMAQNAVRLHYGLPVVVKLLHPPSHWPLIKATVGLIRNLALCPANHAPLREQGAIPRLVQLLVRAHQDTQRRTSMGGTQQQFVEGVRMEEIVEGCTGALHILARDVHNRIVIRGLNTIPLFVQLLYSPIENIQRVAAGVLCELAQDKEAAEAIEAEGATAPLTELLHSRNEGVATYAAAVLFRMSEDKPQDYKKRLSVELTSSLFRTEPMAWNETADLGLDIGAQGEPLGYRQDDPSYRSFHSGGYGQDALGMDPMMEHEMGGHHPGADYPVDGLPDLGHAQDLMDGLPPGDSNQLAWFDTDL

CHI Log D procedure = format: physicochemical; settings: for chromatographic logD: pH 7.4, CHI Log D; for CHI Log D: pH 7.4
Solubility in PBS = format: physicochemical
Summary of the method: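 Read-out is the HPLC peak area of the supernatant from ultracentrifuged PBS solution, scaled against a 50 μM peptide DMSO injection; value reported as [(PBS area)/(DMSO area)]*50 uM.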

[2] = Table E2-1, read-out: beta-Catenin FP IC50
[3] = fluorescence polarization, beta-catenin, read-out: FP EC50

IC50 [1, 2] [µM] | chromatographic logD (CHI Log D procedure) | Solubility (Solubility in PBS; Solubility (uM)) [µM] | IC50 [1, 3] [µM] | CHI Log D (CHI Log D procedure) | Solubility (Solubility in PBS) [µM] | IC50 ([1]; fluorescence polarization, read-out: beta-Catenin FP IC50) [µM] | Compound
2.09 | 2.17 | 44 (≈ 79.3 µg/mL) | – | – | – | – | CC(=O)N1CCC[C@]12CC=CCCCC1(CCCC=CCCCCCC[C@@](C)(C(=O)N[C@@H](Cc3cccc(F)c3)C(=O)N[C@@H](Cc3csc4ccccc34)C(=O)N[C@@H](CCC(N)=O)C(N)=O)NC(=O)[C@H](C)NC(=O)[C@H](Cc3ccccc3)NC(=O)[C@H](C)NC(=O)[C@H](C)NC(=O)[C@H](CCC(=O)O)NC(=O)[C@H](CC(=O)O)NC1=O)NC(=O)[C@H](C)NC(=O)[C@H](CC(=O)O)NC2=O (stereo partly drawn) [I-372, Ac-PL3-Asp-Ala-B5-Asp-Glu-Ala-Ala-Phe-Ala-S8-3FF-BztA-Gln-NH2]
0.945 | 2.3 | 26 (≈ 48.5 µg/mL) | – | – | – | – | CC(=O)N1CCC[C@]12CC=CCCCC1(CCCC=CCCCCCC[C@@](C)(C(=O)N[C@@H](Cc3ccccc3)C(=O)N[C@@H](Cc3csc4ccccc34)C(=O)N[C@@H](CCC(N)=O)C(N)=O)NC(=O)[C@H](C(C)C)NC(=O)[C@H](Cc3cccc(C(F)(F)F)c3)NC(=O)[C@H](C)NC(=O)[C@H](C)NC(=O)[C@H](CC(=O)O)NC(=O)[C@H](CC(=O)O)NC1=O)NC(=O)[C@H](C)NC(=O)[C@H](CC(=O)O)NC2=O (stereo partly drawn) [I-373, Ac-PL3-Asp-Ala-B5-Asp-Asp-Ala-Ala-3F3MeF-Val-S8-Phe-BztA-Gln-NH2]
3.01 | – | – | 3.01 | 2.242 | 49 (≈ 90.1 µg/mL) | – | CC(=O)N1CCC[C@]12CC=CCCCC1(CCCC=CCCCCCC[C@@](C)(C(=O)N[C@@H](Cc3ccccc3)C(=O)N[C@@H](Cc3csc4ccccc34)C(=O)N[C@@H](CCC(N)=O)C(N)=O)NC(=O)[C@H](C)NC(=O)[C@H](Cc3cccc(C(F)(F)F)c3)NC(=O)[C@H](C)NC(=O)[C@H](C)NC(=O)[C@H](CC(=O)O)NC(=O)[C@H](CC(=O)O)NC1=O)NC(=O)[C@H](C)NC(=O)[C@H](CC(=O)O)NC2=O (stereo partly drawn) [I-374, Ac-PL3-Asp-Ala-B5-Asp-Asp-Ala-Ala-3F3MeF-Ala-S8-Phe-BztA-Gln-NH2]
– | – | – | 3.01 | 2.242 | 49 (≈ 90.1 µg/mL) | – | CC(=O)N1CCC[C@]12CC=CCCCC1(CCCC=CCCCCCC[C@@](C)(C(=O)N[C@@H](Cc3ccccc3)C(=O)N[C@@H](Cc3csc4ccccc34)C(=O)N[C@@H](CCC(N)=O)C(N)=O)NC(=O)[C@H](C)NC(=O)[C@H](Cc3cccc(C(F)(F)F)c3)NC(=O)[C@H](C)NC(=O)[C@H](C)NC(=O)[C@H](CC(=O)O)NC(=O)[C@H](CC(=O)O)NC1=O)NC(=O)[C@H](C)NC(=O)[C@H](CC(=O)O)NC2=O (stereo partly drawn) [I-375, Ac-PL3-Asp-Ala-B5-Asp-Asp-Ala-Ala-3F3MeF-Ala-S8-Phe-BztA-Gln-NH2]
1.32 | – | – | 1.32 | 2.296 | 48 (≈ 88.2 µg/mL) | – | CC(=O)N1CCC[C@]12CC=CCCCC1(CCCC=CCCCCCC[C@@](C)(C(=O)N[C@@H](Cc3ccccc3)C(=O)N[C@@H](Cc3csc4ccccc34)C(=O)N[C@@H](CCC(N)=O)C(N)=O)NC(=O)[C@H](C)NC(=O)[C@H](Cc3cccc(C(F)(F)F)c3)NC(=O)[C@H](C)NC(=O)[C@H](C)NC(=O)[C@H](CC(=O)O)NC(=O)[C@H](CC(=O)O)NC1=O)NC(=O)[C@H](C)NC(=O)[C@H](CC(=O)O)NC2=O (stereo partly drawn) [I-376, Ac-PL3-Asp-Ala-B5-Asp-Asp-Ala-Ala-3F3MeF-Ala-S8-Phe-BztA-Gln-NH2]
– | – | – | 1.32 | 2.296 | 48 (≈ 88.2 µg/mL) | – | CC(=O)N1CCC[C@]12CC=CCCCC1(CCCC=CCCCCCC[C@@](C)(C(=O)N[C@@H](Cc3ccccc3)C(=O)N[C@@H](Cc3csc4ccccc34)C(=O)N[C@@H](CCC(N)=O)C(N)=O)NC(=O)[C@H](C)NC(=O)[C@H](Cc3cccc(C(F)(F)F)c3)NC(=O)[C@H](C)NC(=O)[C@H](C)NC(=O)[C@H](CC(=O)O)NC(=O)[C@H](CC(=O)O)NC1=O)NC(=O)[C@H](C)NC(=O)[C@H](CC(=O)O)NC2=O (stereo partly drawn) [I-377, Ac-PL3-Asp-Ala-B5-Asp-Asp-Ala-Ala-3F3MeF-Ala-S8-Phe-BztA-Gln-NH2]
1.34 | – | – | 1.34 | 2.143 | 50 (≈ 94.8 µg/mL) | – | CC(=O)N1CCC[C@]12CC=CCCCC1(CCCC=CCCCCCC[C@@](C)(C(=O)N[C@@H](Cc3ccccc3)C(=O)N[C@@H](Cc3csc4ccccc34)C(=O)N[C@@H](CCC(N)=O)C(N)=O)NC(=O)[C@H](CCC(N)=O)NC(=O)[C@H](Cc3cccc(C(F)(F)F)c3)NC(=O)[C@H](C)NC(=O)[C@H](C)NC(=O)[C@H](CC(=O)O)NC(=O)[C@H](CC(=O)O)NC1=O)NC(=O)[C@H](C)NC(=O)[C@H](CC(=O)O)NC2=O (stereo partly drawn) [I-378, Ac-PL3-Asp-Ala-B5-Asp-Asp-Ala-Ala-3F3MeF-Gln-S8-Phe-BztA-Gln-NH2]
– | – | – | 1.34 | 2.143 | 50 (≈ 94.8 µg/mL) | – | CC(=O)N1CCC[C@]12CC=CCCCC1(CCCC=CCCCCCC[C@@](C)(C(=O)N[C@@H](Cc3ccccc3)C(=O)N[C@@H](Cc3csc4ccccc34)C(=O)N[C@@H](CCC(N)=O)C(N)=O)NC(=O)[C@H](CCC(N)=O)NC(=O)[C@H](Cc3cccc(C(F)(F)F)c3)NC(=O)[C@H](C)NC(=O)[C@H](C)NC(=O)[C@H](CC(=O)O)NC(=O)[C@H](CC(=O)O)NC1=O)NC(=O)[C@H](C)NC(=O)[C@H](CC(=O)O)NC2=O (stereo partly drawn) [I-379, Ac-PL3-Asp-Ala-B5-Asp-Asp-Ala-Ala-3F3MeF-Gln-S8-Phe-BztA-Gln-NH2]
0.552 | – | – | 0.552 | 2.19 | 49 (≈ 92.9 µg/mL) | – | CC(=O)N1CCC[C@]12CC=CCCCC1(CCCC=CCCCCCC[C@@](C)(C(=O)N[C@@H](Cc3ccccc3)C(=O)N[C@@H](Cc3csc4ccccc34)C(=O)N[C@@H](CCC(N)=O)C(N)=O)NC(=O)[C@H](CCC(N)=O)NC(=O)[C@H](Cc3cccc(C(F)(F)F)c3)NC(=O)[C@H](C)NC(=O)[C@H](C)NC(=O)[C@H](CC(=O)O)NC(=O)[C@H](CC(=O)O)NC1=O)NC(=O)[C@H](C)NC(=O)[C@H](CC(=O)O)NC2=O (stereo partly drawn) [I-380, Ac-PL3-Asp-Ala-B5-Asp-Asp-Ala-Ala-3F3MeF-Gln-S8-Phe-BztA-Gln-NH2]
3.65 | – | – | 3.65 | 2.636 | 10 (≈ 18.2 µg/mL) | – | CC(=O)N1CCC[C@]12CC=CCCCC1(CCCC=CCCCCCC[C@@](C)(C(=O)N[C@@H](Cc3cccc(F)c3)C(=O)N[C@@H](Cc3csc4ccccc34)C(=O)N[C@@H](CCC(N)=O)C(N)=O)NC(=O)[C@H](C(C)C)NC(=O)[C@H](Cc3ccccc3)NC(=O)[C@H](C)NC(=O)[C@H](C)NC(=O)[C@H](CC(N)=O)NC(=O)[C@H](CC(=O)O)NC1=O)NC(=O)[C@H](C)NC(=O)[C@H](CC(=O)O)NC2=O (stereo partly drawn) [I-381, Ac-PL3-Asp-Ala-B5-Asp-Asn-Ala-Ala-Phe-Val-S8-3FF-BztA-Gln-NH2]
2.06 | – | – | 2.06 | 2.631 | 10 (≈ 18.2 µg/mL) | – | CC(=O)N1CCC[C@]12CC=CCCCC1(CCCC=CCCCCCC[C@@](C)(C(=O)N[C@@H](Cc3cccc(F)c3)C(=O)N[C@@H](Cc3csc4ccccc34)C(=O)N[C@@H](CCC(N)=O)C(N)=O)NC(=O)[C@H](C(C)C)NC(=O)[C@H](Cc3ccccc3)NC(=O)[C@H](C)NC(=O)[C@H](C)NC(=O)[C@H](CC(N)=O)NC(=O)[C@H](CC(=O)O)NC1=O)NC(=O)[C@H](C)NC(=O)[C@H](CC(=O)O)NC2=O (stereo partly drawn) [I-382, Ac-PL3-Asp-Ala-B5-Asp-Asn-Ala-Ala-Phe-Val-S8-3FF-BztA-Gln-NH2]
0.177 | – | – | 0.177 | 1.837 | 45 (≈ 81.6 µg/mL) | – | CC(=O)N1CCC[C@]12CC=CCCCC1(CCCC=CCCCCCC[C@@](C)(C(=O)N[C@@H](Cc3ccccn3)C(=O)N[C@@H](Cc3csc4ccccc34)C(=O)N[C@@H](CCC(N)=O)C(N)=O)NC(=O)[C@H](C(C)C)NC(=O)[C@H](Cc3ccccc3)NC(=O)[C@H](C)NC(=O)[C@H](C)NC(=O)[C@H](CCC(=O)O)NC(=O)[C@H](CC(=O)O)NC1=O)NC(=O)[C@H](C)NC(=O)[C@H](CC(=O)O)NC2=O (stereo partly drawn) [I-384, Ac-PL3-Asp-Ala-B5-Asp-Glu-Ala-Ala-Phe-Val-S8-2pyrA-BztA-Gln-NH2]
– | 1.71 | – | – | – | 50 (≈ 90.7 µg/mL) | 3.15 | CC(=O)N1CCC[C@]12CC=CCCCC1(CCCC=CCCCCCC[C@@](C)(C(=O)N[C@@H](Cc3ccncc3)C(=O)N[C@@H](Cc3csc4ccccc34)C(=O)N[C@@H](CCC(N)=O)C(N)=O)NC(=O)[C@H](C(C)C)NC(=O)[C@H](Cc3ccccc3)NC(=O)[C@H](C)NC(=O)[C@H](C)NC(=O)[C@H](CCC(=O)O)NC(=O)[C@H](CC(=O)O)NC1=O)NC(=O)[C@H](C)NC(=O)[C@H](CC(=O)O)NC2=O (stereo partly drawn) [I-385, Ac-PL3-Asp-Ala-B5-Asp-Glu-Ala-Ala-Phe-Val-S8-4pyrA-BztA-Gln-NH2]
